Results taken from patent publication US6573296B2, “Therapeutic quassinoid preparations with antineoplastic, antiviral, and herbistatic activity” (priority 1997, dated 2003).

Tests used:
L1210 = assay: soft agar disk diffusion zone of inhibition assay; format: cell-based, mice; conditions: 25 ug/disk
C38 = assay: soft agar disk diffusion zone of inhibition assay; format: cell-based, mice; conditions: 25 ug/disk
CX-1 = assay: soft agar disk diffusion zone of inhibition assay; format: cell-based, human; conditions: 25 ug/disk
Text: (§1) The following human tumors were used: Human adenosquamous lung tumor H-125 (7) and colon tumors H8, HCT-116, and CX-1 were used for in vitro testing only. Each human cell line was maintained in culture until plating was done. HCT-116, H8, and CX-1 were maintained in McCoy's media and heat inactivated fetal bovine serum (11% FBS). It was passaged (1:5 dilution) twice week following enzymatic dissociation using a trypsin/PBS-EDTA mixture. H-125 was maintained in CMRL/Fischer media (1:1) with 11% FBS. It was mechanically dissociated and passaged (3:10 dilution) weekly. For the plating assay, all cells were mechanically dispersed and diluted in the CMRL/Fischer. media mixture.

H8 = assay: soft agar disk diffusion zone of inhibition assay; format: cell-based, human; conditions: 25 ug/disk
Text: as §1

human rhinovirus-14 = assay: cytopathic effect of rhinovirus in HeLa cells; format: cell-based; conditions: HeLa cells (Wisconsin strain), visually observed
Experimental: C. HeLa cells (Wisconsin strain, Berlin, Germany) were contacted with human rhinovirus-14. Infected cells (Wisconsin strain) were visually observed. […] HeLa cells were not killed by any compounds used. Cells of other HeLa lines (eg. ATCC CCL2) were killed. Glaucarubolone, simalikalactone D and chaparrinone were tested on cell killing and virus production by primary blood monocytes. All three drugs were tested at five concentrations (0, 10^−9, 10^−8, 10^−7, and 10^−6 M). Drugs were given at different times pre-infection, given at the time of infection, or were administered at different times post-infection.

NADH oxidase [1] = assay: NADH oxidase activity of soybean hypocotyl plasma membrane vesicles; format: biochemical; conditions: plant soybean hypocotyl tissue, FIG. 11
[2] = system: cabbage, radish, carrot, tomato and sorghum seeds; assay: seed germination; format: in vivo
Experimental: (§2) To evaluate the growth phenotype of a set of plants, a 1 mg concentration of 100 Mm (solution QD-2). This solution was diluted serially with water with or without Triton X-100, ethanol or DMSO and used directly for measurement of effects on seed germination or applied using a microliter syringe to foliage to evaluate growth effects on plants.
With seed germination, the compound was evaluated against five species: cabbage (Early Jersey Wakefield), radish (Scarlet Turnip White Tipped), carrot (Danvers Half Long), tomato (Rutgers) and sorghum (DeKalb 18). With water dilutions, seed germination of all species was inhibited at 10 μM (an aqueous dilution of 10 μl of 100 Mm 1:1000 in 100 μl of water) (Final DMSO concentration of 1:10,000=0.01%). Germination of tomato was inhibited at 10μ1/100 µl of an aqueous dilution of 1:10,000=1 μM final concentration.

[3] = system: Arabadopsis (var. Columbia); assay: growth of plants in soil after foliar application; format: in vivo
Experimental: as §2
When applied to Arabadopsis (var. Columbia) growing in soil in 4 inch plastic pots, the glaucarubolone preparation was herbicidal at dilutions of 1:100 and 1:1000 (10 μ1/half pot). Plants were treated after 10 days of germination. At a dilution of 1:10,000, the plants were not killed but growth was completely stopped for about 3 weeks. Growth resumed about 30 days after treatment. […] The calculated application rate was 2.5×10^−3 oz/A.
In an experiment with Arabadopsis where the quassinoid preparation was administered in ethanol, herbicidal activity was observed down to a dilution of 1:10^4 (2.5×10^−5 oz/A) and a dilution of 1:10^5 (2.5×10^−6 oz/A) appeared to stop growth for at least 30 days. All plants were watered from the bottom to reduce surface spreading of the material. The inhibited phenotype includes an impaired ability of the plants to grow, i.e., cell elongation/cell expansion is prevented or reduced by at least 50% over several weeks.

HeLa cells = assay: growth of HeLa cells under different redox poise; format: cell-based; conditions: 10^−7 M, no drug 725
Experimental: The reduced environment was obtained by addition of 100 μM cysteine and the oxidized environment by addition of 10 μM ter-butylhydroperoxide.

M17/Adr = conditions: multidrug resistant, p-glycoprotein expressing mammary tumor versus leukemia
[4] = system: porcine pseudorabies virus; conditions: rabbit kidney cells
[5] = system: plasma membrane NADH oxidase (tNOX)
[6] = system: Crandall Feline Kidney cells (CFK cells), uninfected; assay: time for complete cell killing, uninfected cells
NADH oxidase [7] = assay: NADH oxidase activity of rat liver cell fractions; conditions: for EC50: read-out: ED50, inhibition of NADH oxidase activity
[8] = system: Crandall Feline Kidney cells infected with Feline Immunodeficiency Virus (FIV); assay: time for complete cell killing, FIV-infected cells
NADH oxidase [9] = assay: NADH oxidase activity of CFK microsomes from infected cells; conditions: Plasma membrane-free CFK microsomes (Golgi-enriched) from infected cells
NADH oxidase [10] = assay: NADH oxidase activity of CFK microsomes from uninfected cells; conditions: read-out: ED50, inhibition of NADH oxidase activity; Plasma membrane-free CFK microsomes (Golgi-enriched) from uninfected cells

## CC1=CC(=O)C(O)C2(C)C1CC1OC(=O)C(O)C3C(C)C(O)C4(O)OCC13C42 (stereo not shown) [Glaucarubolone, glaucarubolone]
L1210
  zone of inhibition L1210: 25:100 ZONE UNITS
C38
  zone of inhibition C38: 900 ZONE UNITS
CX-1
  zone of inhibition CX-1: 100 ZONE UNITS
H8
  zone of inhibition H8: 650 ZONE UNITS
Human rhinovirus-14
  cytopathic effect of human rhinovirus-14: Cytopathic effect was delayed
NADH oxidase [1]
  inhibition of NADH oxidation, in words: similarly inhibited
[2]; DMSO and ethanol dilutions 1:10^6 or 1:10^7, solvents themselves retarded germination
  lowest concentrations at which inhibitions of germination were observed: 10-100 Nm
[2]; all five species, water dilutions
  concentration at which seed germination was inhibited: 10 µM
[2]; tomato, aqueous dilution 1:10,000
  concentration at which seed germination was inhibited: 1 µM
[3]; dilution of 1:1000 (2.5×10^−3 oz/A)
  plants which survived and did not grow for >50 days: Approximately 10%
[3]; dilution of 1:10,000
  time after treatment at which growth resumed: about 30 days
[3]; dilution of 1:10,000 (2.5×10^−4 oz/A), plants not killed
  time for which growth was completely stopped: about 3 weeks
[3]; dilutions of 1:100 and 1:1000 (10 μl/half pot), treated after 10 days of germination
  effect on plants, in words: herbicidal
HeLa cells; 10 μM ter-butylhydroperoxide
  Growth HeLa cells after 72 h, Oxidized: 500 cells/mm^2
HeLa cells; 100 μM cysteine
  Growth HeLa cells after 72 h, Reduced: 700 cells/mm^2
HeLa cells
  Growth HeLa cells after 72 h, In situ: 720 cells/mm^2
M17/Adr
  differential / selectivity for M17/Adr (Mam 17/Adr): demonstrated selectivity
[4]; non-infected
  cytopathic effect on non-infected treated control cells: no cytopathic affect
[4]; visually monitored
  cytopathic effect of porcine pseudorabies virus: inhibited cytopathic effect
[5]; HeLA (ATCC CCL2 strain), FIG. 10
  inhibition of NADH oxidation, in words: inhibits NADH oxidation
[5]; HeLa cell plasma membranes, FIG. 12
  effect of redox poise on inhibition of NADH oxidase activity: affected little by redox poise
[6]; 3 × 10^−4 M
  Time for complete cell killing (>98%), Uninfected: 120 h
[6]; 3 × 10^−5 M
  Time for complete cell killing (>98%), Uninfected: 120 h
[6]; 3 × 10^−6 M
  Time for complete cell killing (>98%), Uninfected: 144 h
[6]; 3 × 10^−7 M
  Time for complete cell killing (>98%), Uninfected: 192 h
[6]; 3 × 10^−8 M
  Time for complete cell killing (>98%), Uninfected: >192 h
[6]; 3 × 10^−9 M
  Time for complete cell killing (>98%), Uninfected: >192 h
NADH oxidase [7]; isolated plasma membranes of liver cells, FIG. 10
  inhibition of NADH oxidation, in words: inhibits NADH oxidation
NADH oxidase [7]; Rat liver golgi apparatus
  EC50: > 10 µM
NADH oxidase [7]; Rat liver microsomes
  EC50: > 10 µM
NADH oxidase [7]; Rat liver plasma membrane
  EC50: > 10 µM
[8]; 3 × 10^−4 M
  Time for complete cell killing (>98%), FIV-Infected: >168 h
[8]; 3 × 10^−5 M
  Time for complete cell killing (>98%), FIV-Infected: >168 h
[8]; 3 × 10^−6 M
  Time for complete cell killing (>98%), FIV-Infected: >168 h
[8]; 3 × 10^−7 M
  Time for complete cell killing (>98%), FIV-Infected: >168 h
[8]; 3 × 10^−8 M
  Time for complete cell killing (>98%), FIV-Infected: >168 h
[8]; 3 × 10^−9 M
  Time for complete cell killing (>98%), FIV-Infected: >168 h
[8]; FIGS. 6 and 7, Table 3
  killing of FIV-infected compared to non-infected CFK cells: differential killing of infected cells
NADH oxidase [9]
  ED50, inhibition of NADH oxidase activity: >10^−8 M
NADH oxidase [10]
  EC50: > 10 µM
